# Source: patent US12202843B2, “Muscarinic receptor agonists” (Nxera Pharma UK Limited, priority 2014, dated 2025)
# Assays:
# Format in all cases: cell-based
# [1] = target: T1, human muscarinic M2 receptor (Homo sapiens, UniProt P08172); assay: Alphascreen Surefire phospho-ERK1/2 functional assay, M2; conditions: for EC50: CHO cells stably expressing human M2, read-out: pEC50 M2 (converted); for Emax: CHO, read-out: % Emax cf. ACh, M2, CHO cells stably expressing human M2, relative to ACh; for % Emax cf. ACh, M2: CHO cells stably expressing human M2, relative to ACh
# T1 sequence (P08172 1-466): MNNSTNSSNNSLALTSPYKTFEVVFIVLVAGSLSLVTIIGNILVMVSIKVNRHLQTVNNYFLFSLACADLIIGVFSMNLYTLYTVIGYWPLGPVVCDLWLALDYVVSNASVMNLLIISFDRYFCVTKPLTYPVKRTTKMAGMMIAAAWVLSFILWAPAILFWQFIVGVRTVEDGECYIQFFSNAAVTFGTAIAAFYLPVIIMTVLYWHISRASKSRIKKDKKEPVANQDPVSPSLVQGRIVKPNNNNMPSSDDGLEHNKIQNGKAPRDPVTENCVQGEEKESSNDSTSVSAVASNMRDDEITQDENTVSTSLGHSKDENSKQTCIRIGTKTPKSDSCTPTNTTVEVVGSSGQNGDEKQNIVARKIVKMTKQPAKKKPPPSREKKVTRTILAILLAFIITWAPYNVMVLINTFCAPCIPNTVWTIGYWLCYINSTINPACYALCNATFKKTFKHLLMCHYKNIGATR
# Procedure: (§1) ERK1/2 phosphorylation is a downstream consequence of both Gq/11 and Gi/o protein coupled receptor activation, making it highly suitable for the assessment of M1, M3 (Gq/11 coupled) and M2, M4 receptors (Gi/o coupled), rather than using different assay formats for different receptor subtypes. CHO cells stably expressing the human muscarinic M1, M2, M3 or M4 receptor were plated (25K/well) onto 96-well tissue culture plates in MEM-alpha+10% dialysed FBS. Once adhered, cells were serum-starved overnight. Agonist stimulation was performed by the addition of 5 μL agonist to the cells for 5 min (37° C.). Media was removed and 50 μL of lysis buffer added. […] Plates were incubated for 2 h with gentle agitation in the dark and then read on a PHERAstar plate reader.
# (§2) pEC50 and Emax figures were calculated from the resulting data for each receptor subtype.
# [2] = target: T2, human muscarinic M3 receptor (Homo sapiens, UniProt P20309); assay: Alphascreen Surefire phospho-ERK1/2 functional assay, M3; conditions: for EC50: CHO cells stably expressing human M3, read-out: pEC50 M3 (converted); for Emax: CHO, read-out: % Emax cf. ACh, M3, CHO cells stably expressing human M3, relative to ACh; for % Emax cf. ACh, M3: CHO cells stably expressing human M3, relative to ACh
# T2 construct: expressed in transfected cells
# Procedure: as §1, §2
# [3] = target: T3, human muscarinic M1 receptor (Homo sapiens, UniProt P11229); assay: Alphascreen Surefire phospho-ERK1/2 functional assay, M1; conditions: for EC50: CHO cells stably expressing human M1, read-out: pEC50 M1 (converted); for Emax: CHO, read-out: % Emax cf. ACh, M1, CHO cells stably expressing human M1, relative to ACh; for % Emax cf. ACh, M1: CHO cells stably expressing human M1, relative to ACh
# T3 sequence (P11229 1-460): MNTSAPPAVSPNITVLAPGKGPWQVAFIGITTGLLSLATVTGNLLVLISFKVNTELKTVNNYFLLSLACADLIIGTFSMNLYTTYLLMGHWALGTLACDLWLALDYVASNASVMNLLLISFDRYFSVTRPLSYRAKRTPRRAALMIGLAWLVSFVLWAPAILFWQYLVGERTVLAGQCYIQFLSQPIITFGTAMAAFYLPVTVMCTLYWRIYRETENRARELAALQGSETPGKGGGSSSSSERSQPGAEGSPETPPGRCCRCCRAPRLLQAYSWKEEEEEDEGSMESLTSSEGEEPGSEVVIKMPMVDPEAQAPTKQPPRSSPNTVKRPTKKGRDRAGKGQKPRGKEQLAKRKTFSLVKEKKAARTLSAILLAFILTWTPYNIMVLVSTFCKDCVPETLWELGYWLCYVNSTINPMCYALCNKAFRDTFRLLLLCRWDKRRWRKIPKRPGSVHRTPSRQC
# Procedure: as §1, §2
# [4] = target: T4, human muscarinic M4 receptor (Homo sapiens, UniProt P08173); assay: Alphascreen Surefire phospho-ERK1/2 functional assay, M4; conditions: for EC50: CHO cells stably expressing human M4, read-out: pEC50 M4 (converted); for Emax: CHO, read-out: % Emax cf. ACh, M4, CHO cells stably expressing human M4, relative to ACh; for % Emax cf. ACh, M4: CHO cells stably expressing human M4, relative to ACh
# T4 construct: expressed in transfected cells
# T4 sequence (P08173 1-479): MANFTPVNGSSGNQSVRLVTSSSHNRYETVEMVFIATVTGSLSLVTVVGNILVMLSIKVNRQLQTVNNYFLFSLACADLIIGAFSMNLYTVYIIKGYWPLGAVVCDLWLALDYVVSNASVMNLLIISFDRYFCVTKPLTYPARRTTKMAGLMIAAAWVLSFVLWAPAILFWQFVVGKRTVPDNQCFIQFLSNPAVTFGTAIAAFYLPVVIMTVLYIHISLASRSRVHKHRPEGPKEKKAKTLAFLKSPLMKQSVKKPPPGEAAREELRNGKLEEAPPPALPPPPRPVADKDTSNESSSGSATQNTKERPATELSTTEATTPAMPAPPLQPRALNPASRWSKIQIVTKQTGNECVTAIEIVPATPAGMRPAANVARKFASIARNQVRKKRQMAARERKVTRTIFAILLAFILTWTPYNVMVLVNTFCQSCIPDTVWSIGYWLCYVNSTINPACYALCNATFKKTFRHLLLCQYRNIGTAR
# Procedure: as §1, §2
# T2 sequence (P20309 whole entry): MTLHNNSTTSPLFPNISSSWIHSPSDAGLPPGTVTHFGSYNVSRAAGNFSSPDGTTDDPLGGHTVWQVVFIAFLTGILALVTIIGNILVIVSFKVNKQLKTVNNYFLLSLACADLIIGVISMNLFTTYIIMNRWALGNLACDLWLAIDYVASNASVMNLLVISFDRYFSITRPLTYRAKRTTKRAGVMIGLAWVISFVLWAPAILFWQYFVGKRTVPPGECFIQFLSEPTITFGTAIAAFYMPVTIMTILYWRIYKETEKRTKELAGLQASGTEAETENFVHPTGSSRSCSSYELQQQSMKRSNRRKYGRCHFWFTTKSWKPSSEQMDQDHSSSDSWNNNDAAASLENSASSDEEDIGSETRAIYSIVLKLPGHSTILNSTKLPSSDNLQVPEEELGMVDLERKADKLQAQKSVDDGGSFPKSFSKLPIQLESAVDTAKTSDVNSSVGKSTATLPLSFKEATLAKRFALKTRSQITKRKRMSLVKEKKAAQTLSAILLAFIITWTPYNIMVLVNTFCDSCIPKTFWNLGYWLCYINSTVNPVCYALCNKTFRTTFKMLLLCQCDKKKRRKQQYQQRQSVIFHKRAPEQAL
SMILES,EC50 [1],Emax [1],EC50 [2],Emax [2],EC50 [3],Emax [3],EC50 [4],Emax [4],"% Emax cf. ACh, M1 [3]",other results
"CCCC1NC(=O)CC12CCN(C1CC3CCC(C1)N3C(=O)OCC)CC2 (single isomer, unassigned) [Example 2-9 Isomer 1]",> 20000 nM,2%,> 20000 nM,22%,5.01 nM,91%,2.51 nM,78%,–,–
"CCOC(=O)N1C2CCC1CC(N1CCC3(CC1)CC(=O)NC3Cc1ccccc1)C2 (single isomer, unassigned) [Example 2-10 Isomer 1]",> 20000 nM,–,> 20000 nM,–,20 nM,74%,79.4 nM,–,–,"% Emax cf. ACh, M2 ([1]; listed as 2-10 Isomer 1): 1%; % Emax cf. ACh, M3 ([2]; listed as 2-10 Isomer 1): 5%; % Emax cf. ACh, M4 ([4]; listed as 2-10 Isomer 1): 21%"
"CCOC(=O)N1C2CCC1CC(N1CCC3(CC1)CC(=O)NC3Cc1ccccc1)C2 (single isomer, unassigned) [Example 2-10 Isomer 2]",–,–,–,–,63.1 nM,–,126 nM,–,77%,"% Emax cf. ACh, M2 ([1]; listed as 2-10 Isomer 2): 11%; % Emax cf. ACh, M3 ([2]; listed as 2-10 Isomer 2): 13%; % Emax cf. ACh, M4 ([4]; listed as 2-10 Isomer 2): 50%"
"CCOC(=O)N1C2CCC1C(F)C(N1CCC3(CC1)CNC(=O)C3)C2 (single isomer, unassigned) [Example 2-11 Isomer 2]",> 20000 nM,18%,> 20000 nM,22%,251 nM,–,200 nM,–,101%,"% Emax cf. ACh, M4 [4]: 55%"
"CCOC(=O)N1C2CCC1CC(N1CCC3(CC1)CC(=O)N(CC)C3)C2 (single isomer, unassigned) [Example 2-13 Isomer 2]",> 20000 nM,11%,> 20000 nM,57%,158 nM,76%,100 nM,49%,–,–
"CCOC(=O)N1C2CCC1CC(N1CCC3(CC1)CNC(=O)O3)C2 (single isomer, unassigned) [Example 2-14 Isomer 2]",> 20000 nM,0%,> 20000 nM,0%,39.8 nM,–,79.4 nM,–,92%,"% Emax cf. ACh, M4 [4]: 60%"
"CCOC(=O)N1C2CCC1CC(N1CCC3(CC1)OC(=O)NC3CC)C2 (single isomer, unassigned) [Example 2-16 Isomer 1]",> 20000 nM,3%,> 20000 nM,9%,50.1 nM,–,79.4 nM,–,–,"% Emax cf. ACh, M1 ([3]; listed as 2-16 Isomer 1): 36%; % Emax cf. ACh, M4 ([4]; listed as 2-16 Isomer 1): 19%"
"CCOC(=O)N1C2CCC1CC(N1CCC3(CC1)OC(=O)NC3C(C)C)C2 (single isomer, unassigned) [Example 2-17 Isomer 1]",> 20000 nM,2%,> 20000 nM,–,31.6 nM,–,20 nM,–,–,"% Emax cf. ACh, M3 ([2]; listed as 2-17 Isomer 1): 51%; % Emax cf. ACh, M1 ([3]; listed as 2-17 Isomer 1): 58%; % Emax cf. ACh, M4 ([4]; listed as 2-17 Isomer 1): 25%"
"CCOC(=O)N1C2CCC1CC(N1CCC3(CC1)OC(=O)NC3C(C)C)C2 (single isomer, unassigned) [Example 2-17 Isomer 2]",–,–,–,–,200 nM,–,100 nM,–,–,"% Emax cf. ACh, M2 [1]: 3%; % Emax cf. ACh, M3 ([2]; listed as 2-17 Isomer 2): 12%; % Emax cf. ACh, M1 ([3]; listed as 2-17 Isomer 2): 117%; % Emax cf. ACh, M4 ([4]; listed as 2-17 Isomer 2): 72%"
"CCCN1CC2(CCN(C3CC4CCC(C3)N4C(=O)OCC)CC2)CC1=O (single isomer, unassigned) [Example 2-25 Isomer 2, ethyl 3-(3-oxo-2-propyl-2,8-diazaspiro[4.5]dec-8-yl)-8-azabicyclo[3.2.1]octane-8-carboxylate]",> 20000 nM,15%,> 20000 nM,12%,251 nM,53%,251 nM,25%,–,–
